Tested on: Pseudomonas aeruginosa PA14
Test: Microfluidic pressure-driven flow assay (biofilm streamer clogging)
Format: cell-based
Settings: low concentration of tetracycline; microfluidic channel
Procedure: Overnight P. aeruginosa cultures were backdiluted 1:100 in tryptone broth and grown to midlogarithmic phase (OD600=0.5). This culture (100 mL) was used to fill a reservoir connected via Tygon tubing (inner diameter 2.4 mm) to a microfluidic channel made from polydimethylsiloxane (PDMS) (Sylgard 184, Dow Corning). The channels (FIG. 1A) are 90 μm high, 200 μm wide, and constitute the narrowest part of the experimental flow system. Analogous to the inlet, the outlet of the microfluidic channel is also connected to Tygon tubing, and the effluent culture is collected in a dish on an analytical balance. By changing the elevation of the culture reservoir above the effluent collection dish, the applied pressure difference Δp is altered, which alters the flow rate through the channel. Operating this system for 24 h with H2O at a flow rate of 15.7±0.05 μL/min reduced the liquid level in the reservoir to decrease the pressure drop across the channel by 2.1%. […]
The weight of the effluent culture was measured every 4 s on an analytical balance (GD503, Sartorius), controlled with LabVIEW. […]
where the density was assumed to be the density of water, 1 kg/L. T and τ were calculated by fitting the function
[formula] to the measured flow rate Q(t), where Q0 is the flow rate before the clogging transition. […]

CN(C)[C@@H]1C(O)=C(C(N)=O)C(=O)[C@@]2(O)C(O)=C3C(=O)c4c(O)cccc4[C@@](C)(O)[C@H]3C[C@@H]12 [tetracycline]
duration of the clogging transition (τ): no effect
